# Measured values: patent US4954482A, “New glycopeptide antibiotic” (Pfizer Inc., priority 1986, dated 1990)
# Tested on: rumen fluid
# Assay: In vitro rumen technique: propionic acid production
# Assay type: cell-based, cow
# Settings: 10 micrograms per milliliter; rumen fluid incubated at 39° C. about 16 hours
# Method: The value of animal feeds has generally been determined directly by feeding the animal. British Patent Specification No. 1,197,826 details an in vitro rumen technique whereby the changes occurring in feeds brought about by microorganisms are measured more readily and with great accuracy in the evaluation of animal feeds. This technique involves the use of an apparatus in which the digestive processes of the animals are conducted and studied in vitro. The animal feeds, rumen inoculum and various growth promotants are introduced into and withdrawn from a laboratory unit under carefully controlled conditions and the changes taken place are studied critically and progressively during the consumption of the feed by the microorganisms. […] The change in propionic acid content is expressed as percent of the propionic acid content found in the control rumen fluid. Long term in vivo feeding studies are used to show a reliable correlation between propionic acid increase in the rumen fluid and improved animal performance. […]
# After incubation, 5 ml. of the sample is mixed with 1 ml. of 25% metaphosphoric acid. […] Samples are then analyzed by gas-liquid chromatography by the mthod of D. W. Kellog, J. Dairy Science, 52, 1690, 1969. Peak heights for acetic, propionic and butyric acids are determined for samples from untreated and treated incubation flasks.
compound,measurement,value
CC[C@@H](C(=O)[C@@H](C)[C@@H](O)[C@H](C)[C@@H]1O[C@@H]([C@@H](CC)C(=O)O)CC[C@@H]1C)[C@H]1O[C@]2(C=C[C@@H](O)[C@]3(CC[C@@](C)([C@H]4CC[C@](O)(CC)[C@H](C)O4)O3)O2)[C@H](C)C[C@@H]1C [salinomycin],increase in the production of propionic acid over control,~46%
